Data from EP1914237B1 (priority 1999, dated 2001).
pEC50, pIC50: −log10 of the molar value. Like-named read-outs stand apart in the source and are kept apart here.

Legend:
HCMV [1] = tested on: HCMV
MLO-Y4 osteocytic cells = settings: pretreated 1 hour, then 6 hours with 10^-4 M dexamethasone; percentage of dead cells; p<0.05
Calvarial cells = experiment: Dexamethasone-induced apoptosis in calvarial cells (trypan blue uptake); type: cell-based, neonatal C57BL/6J mice; settings: pretreated 1 hour, then 6 hours with 10^-4 dexamethasone; p=<0.05
Ovariectomized Rats = settings: subcutaneous 0 to 8 mg /kg/day, four to twelve weeks; versus ovariectomized controls
Cowpox = experiment: organism not typed; type: cell-based; settings: read-out: EC50, µM Cowpox
[2] = tested on: human lung fibroblast cells (MRC-5); experiment: Cytotoxicity of test compounds in vitro in MRC-5 cells (visual estimate of cell number); type: cell-based
Protocol: (§1) Cytotoxicity of test compounds in vitro: Subconfluent human lung fibroblast cells (MRC-5, American Type Culture Collection, Rockville, MD) in 24-well plates were treated with drugs diluted in E-MEM (Gibco BRL, Grand Island, NY) supplemented with 2% fetal bovine serum and antibiotics. After 5 days of incubation at 37°C, the cell monolayer was visually inspected under magnification and the concentration of drug which caused a 50% reduction in cell number was estimated.

Variola Minor, Garcia = type: cell-based; settings: Table 4; Vero cells; average of 3 determinations
[3] = tested on: Variola Major, Bangladesh; experiment: organism not typed; type: cell-based; settings: read-out: EC50, µM Variola Major, Bangladesh
Vaccinia = experiment: microbe, parasite or virus in culture; type: cell-based; settings: read-out: EC50, µM Vaccinia
Variola Major, Yamada = type: cell-based; settings: Table 4; Vero cells; average of 3 determinations
Vero cells = settings: monkey
HSV-1 = experiment: microbe, parasite or virus in culture; type: cell-based
in vitro = settings: monkey, vero cells
HCMV [4] = experiment: microbe, parasite or virus in culture; settings: Human betaherpesvirus 5, MRC5
cowpox virus = experiment: microbe, parasite or virus in culture; type: cell-based; settings: for EC50: read-out: Cowpox, EC50, µM; for pIC50: read-out: IC50 in cowpox infected cells
vaccinia virus = experiment: microbe, parasite or virus in culture; type: cell-based; settings: Orthopoxvirus vaccinia, HFF; for pIC50: read-out: IC50 against vaccinia virus; for EC50: read-out: Vaccinia EC50, µM
CEM = experiment: Cytotoxicity in CEM cells; settings: read-out: CEM, CC50; Table 1; rapidly dividing cells
HFF Cells = settings: human
[5] = tested on: Humans with Steroid-Induced Osteoporosis; experiment: Stimulation of bone formation in humans with steroid-induced osteoporosis; type: in vivo; settings: oral 0.1 to 100 mg/kg/day, one month to one year; versus placebo
Humans with Osteoporosis = settings: postmenopausal women, oral 0.1 to 100 mg/kg/day, two to three years; versus placebo
HIV-1 [6] = experiment: microbe, parasite or virus in culture; settings: Human immunodeficiency virus 1
[7] = Cytotoxicity of test compounds in vitro in MRC-5 cells (visual estimate of cell number); type: cell-based, human; settings: human, mrc-5 cells; Table 2; MRC-5, 5 days at 37°C
Protocol: as §1

[8] = Cytotoxicity by the method of Hostetler et al. (HIV study); type: cell-based; settings: human, ht4-6c cells; Table 6; cell line of the cytotoxicity test not stated
HIV-1 [9] = tested on: HIV-1
[10] = Table 4, Vero cells, average of 3 determinations
[11] = Table 7, assessed as described in Example 17, 7200 min
[12] = Table 1, against HCMV, CC50 in CEM cells

1-O-octadecyl-sn-glyceryl-3-adefovir [1-O-octadecyl-sn-glycero-3-ADV]
pEC50 (HCMV [1]): 6.68

CCCCCCCCCCCCCCCCOCCCOP(=O)(O)C(O)(CCCN)P(=O)(O)O (stereo not drawn) [HDP-alendronate, 1-O-hexadecylpropanediol-3-alendronate]
concentration at which dexamethasone-induced apoptosis is inhibited (MLO-Y4 osteocytic cells): 10^-8 to 10^-5 M | concentration at which the dexamethasone-induced increase in % dead cells is abolished (Calvarial cells): ≥ 10^-8 | bone mass loss (ash weight of the femora) (Ovariectomized Rats): less bone mass loss than the ovariectomized controls

CCCCCCCCCCCCCCCCOCCCOP(=O)(O)CO[C@H](CO)Cn1ccc(N)nc1=O [HDP-CDV]
EC50 (Cowpox; [10]): < 0.03 µM | CC50 ([2]; Table 2, MRC-5, 5 days at 37°C): 10 µM | CC50 [2, 11]: 10 µM | EC50 (Variola Minor, Garcia): 0.0006 µM | EC50 [3, 10]: 0.0015 µM | EC50 (Vaccinia; [10]): < 0.03 µM | EC50 (Variola Major, Yamada): 0.0015 µM | pEC50 (HCMV [1]): 11.70 | CC50 (Vero cells): > 0.1 µM

CCCCCCCCCCCCCCCCCCOCCCOP1(=O)COC(Cn2ccc(N)nc2=O)CO1 (stereo not drawn) [1-O-octadecylpropanediol-3-cCDV]
CC50 ([2]; Table 2, MRC-5, 5 days at 37°C): 320 µM | CC50 [2, 11]: 320 µM | pEC50 (HCMV [1]): 9.52 | pEC50 (HSV-1; read-out: EC50): 6.48

CCCCCCCCCCCCCCCCCCOCCOP1(=O)COC(Cn2ccc(N)nc2=O)CO1 (stereo not drawn) [1-O-octadecylethanediol-2-cCDV]
CC50 ([2]; Table 2, MRC-5, 5 days at 37°C): 320 µM | CC50 [2, 11]: 320 µM | pEC50 (HCMV [1]): 9.52 | pEC50 (HSV-1; read-out: EC50): 8.10

Nc1ccn(C[C@@H](CO)OCP(=O)(O)O)c(=O)n1 [CDV, cidofovir]
EC50 (Cowpox; Vero): 3.8 µM | CC50 ([2]; Table 2, MRC-5, 5 days at 37°C): > 1000 µM | CC50 [2, 11]: > 1000 µM | EC50 ([3]; Vero): 100 µM | EC50 (Vaccinia; Orthopoxvirus vaccinia, Vero): 2.2 µM | CC50 (in vitro): > 100 µM | pEC50 (HCMV [4]): 6.34 | Selectivity Index (HCMV [1]; [12]): 1,900 | EC50 (cowpox virus; Cowpox virus, HFF): 2.1 µM | pIC50 (cowpox virus; Cowpox virus, HFF): 5.68 | pEC50 (HSV-1; Human alphaherpesvirus 1, MRC5): 5.92 | pIC50 (vaccinia virus): 5.74 | EC50 (vaccinia virus): 1.8 µM | CC50 (CEM): 857 µM | CC50 (HFF Cells): 89.8 µM

CCCCCCCCCCCCCCCCOP1(=O)COC(Cn2ccc(N)nc2=O)CO1 (stereo not drawn) [Hexadecyl-cCDV]
CC50 ([2]; Table 2, MRC-5, 5 days at 37°C): 6.5 µM | pEC50 (HCMV [1]): 7.40

1-O-octadecyloxypropyl-amino-olpadronate
bone density [5]: bone density is increased | fractures [5]: fractures are decreased

Nc1ccn(C[C@H]2COP(=O)(O)CO2)c(=O)n1 [cCDV, cyclic cidofovir]
CC50 ([2]; Table 2, MRC-5, 5 days at 37°C): > 1000 µM | CC50 [2, 11]: > 1000 µM | EC50 ([3]; Vero): 100 µM | pEC50 (HCMV [4]): 6.33 | Selectivity Index (HCMV [1]; [12]): >2,100 | EC50 (cowpox virus; Cowpox virus, HFF): 0.72 µM | pIC50 (cowpox virus; Cowpox virus, HFF): 6.14 | CC50 (Vero cells): > 100 µM | pEC50 (HSV-1; Human alphaherpesvirus 1, MRC5): 5.68 | pIC50 (vaccinia virus): 6.01 | EC50 (vaccinia virus): 0.97 µM | CC50 (CEM): > 1000 µM | CC50 (HFF Cells): > 100 µM

CCCCCCCCCCCCCCCCCCOCCCOP(=O)(O)CO[C@H](CO)Cn1ccc(N)nc1=O [1-O-octadecylpropanediol-3-CDV]
CC50 ([2]; Table 2, MRC-5, 5 days at 37°C): 32 µM | CC50 [2, 11]: 32 µM | pEC50 (HCMV [1]): 10.52 | pEC50 (HSV-1; read-out: EC50): 8.52

CCCCCCCCCCCCCCCCCCOCCOP(=O)(O)COC(CO)Cn1ccc(N)nc1=O (stereo not drawn) [1-O-octadecylethanediol-2-CDV]
CC50 ([2]; Table 2, MRC-5, 5 days at 37°C): 210 µM | CC50 [2, 11]: 210 µM | pEC50 (HSV-1; read-out: EC50): 8.70

CCCCCCCCCCCCCCCCCCOCCCOP(=O)(O)C(O)(CCCN)P(=O)(O)O (stereo not drawn) [1-O-octadecyloxypropyl alendronate, 1-O-octadecyloxypropyl-alendronate]
fractures (Humans with Osteoporosis): fewer fractures | rate of reduction in bone density (Humans with Osteoporosis): a lesser rate of reduction in bone density than the placebo group

CCCCCCCCCCCCCCCCOCCCOP(=O)(O)COCCn1cnc2c(N)ncnc21 [HDP-Adefovir]
pEC50 (HIV-1 [6]): 8.10 | CC50 at 120 h [7]: 6.5 µM | CC50 [8]: 6.5 µM | EC50,µM (HIV-1 [9]): more active and selective than adefovir | Selectivity Index (HIV-1 [9]): 813 | pEC50 (HCMV [4]): 7.00 | Selectivity Index (HCMV [1]): 65

CCCCCCCCCCCCCCCCOCCCOP1(=O)COC(Cn2ccc(N)nc2=O)CO1 (stereo not drawn) [HDP-cCDV, 1-O-hexadecylpropanediol-3-cyclic CDV]
EC50 (Cowpox; [10]): < 0.03 µM | CC50 ([2]; Table 2, MRC-5, 5 days at 37°C): 320 µM | CC50 [2, 11]: 320 µM | EC50 [3, 10]: > 0.01 µM | pEC50 (HCMV [1]): 9.52 | pEC50 (HCMV [1]; read-out: HCMV EC50): 9.30 | pEC50 (cowpox virus; Table 3, preliminary, HFF cells, CPE reduction, read-out: Cowpox, EC50): > 7.52 | pIC50 (cowpox virus; Table 3): > 7.52 | CC50 (Vero cells): > 0.1 µM | pEC50 (HSV-1; read-out: EC50): 7.52 | CC50 (CEM): 30 µM | CC50 (HFF Cells): > 100 µM
